Data as given in patent US5871946A, “Method for determining activity of enzymes in metabolically active whole cells” (priority 1995, dated 1999).

Key:
amino peptidase = assay: Aminopeptidase activity in acute lympholytic Ficoll prepared lymphocytes; assay type: cell-based; details: FIG. 4B
From the text: The cell's ability to fight off an invader lies within its genetics and therefore cell type. The "readiness" however of any genetically capable group of cells to defend is different. A measure of this "readiness" is manifest in the available proteolytic enzymes contained within vacuoles or on the surface of the cell. The assay compound hydrolysis rate increases with increased mass of enzymes giving a picture of immune competence both in number of cells and activity level. […] Images were generated using Universal Imaging.

MONOCYTES = assay: Disease to normal ratio of enzyme activity, monocytes (Table 5); assay type: cell-based, human
From the text: (§1) A normal in house adult donor pool was drawn, recording sex and determining that no known disease state was present at the time of sample draw. Criteria for rejecting samples included patients under medication, patients with infection or inflammation of any type, colds and flu as well as any known medical illness such as cancer, heart ailment and high blood pressure. A donor list of 75 patients has been developed and a mean and 2 sd range established. A subgroup of "super normals" was developed from this list by examining the 75 patients to determine which group falls closest to the mean for all enzymes in all cell types tested. These patients were used as the "wellness index" or best group of "normalcy" patients. If a study required the use of children or newborns then this same format was used to develop a data base for these age groups.

LYMPHOCYTES = assay: Disease to normal ratio of enzyme activity, lymphocytes (Table 5); assay type: cell-based, human
From the text: as §1

[1] = Effect of sodium chloride on dipeptide reagent; assay type: cell-based; details: 7 mM, pH range 6.5 to 8.7
From the text: Inhibitors and poisons (or toxins) are components that can be added to reduce the activity of non-targeted enzymes that provide competing reactions for the leaving group. Inhibitors are usually very selective for a particular enzyme. For example, EDTA only works with enzymes requiring Ca^+2, Mg^+2 and some other metals. […] Preferred inhibitors for particular enzymes are included in Table 1.

[2] = Modulators of sensitivity of rhodamine 110 substrates; assay type: cell-based; details: 1 mM
From the text: Modulators are components used to […] the sensitivity of the enzyme for the leaving group. The modulators speed up or slow down the activity of an enzyme by changing the active site. […] Preferred modulators for particular enzymes are included in Table 1.

CC(C)C[C@H](N)C(=O)Nc1ccc2c(c1)Oc1cc(NC(=O)[C@@H](N)CC(C)C)ccc1C21OC(=O)c2ccccc21 [LEU, (Leu)2 Rho 110]
enzymatic activity (amino peptidase): lost their enzymatic activity | Ratio of disease to normal (MONOCYTES; Dermatomyositis, monocytes): 1.35 | Ratio of disease to normal (MONOCYTES; Inflam. Bowel Dis., monocytes section): 1.13 | Ratio of disease to normal (MONOCYTES; JRA, monocytes): 1.44 | Ratio of disease to normal (MONOCYTES; Lupus, monocytes): 44.44 | Ratio of disease to normal (LYMPHOCYTES; Dermatomyositis): 1.36 | Ratio of disease to normal (LYMPHOCYTES; Inflam. Bowel Dis.): 1.34 | Ratio of disease to normal (LYMPHOCYTES; Lupus): 1.93 | Ratio of disease to normal (LYMPHOCYTES; Rheumatic Fever): 1.05

[Cl-].[Na+] [sodium chloride]
inhibitory effect on dipeptide reagent [1]: slightly inhibitory effect

O[C@H](CS)[C@@H](O)CS [dithioerythritol (DTE), dithioerythritol]
effect on sensitivity of the leaving group for the enzyme ([2]; Ala-Gly and Leu-Gly substrates): does not change the sensitivity | effect on sensitivity of substituted rhodamine 110 substrates ([2]; Pro, Gly, Gln-Ser, Val-Lys-Val-Lys, Ala-Ala, Ala-Ala-Ala-Ala substrates): decreases the sensitivity
